Source: US9469665B2, “Compound having lysophosphatidylserine receptor function modulation activity” (THE UNIVERSITY OF TOKYO, priority 2013, dated 2016)

What was measured:
Type in all cases: cell-based
[1] = target: T1, mouse GPR34 (Mus musculus, UniProt Q9R1K6); experiment: TGFα shedding assay, agonistic activity on GPR34; set-up: key to GPR34/LPS2 agonistic activity, TGFα shedding assay: an activity that is 100 folds that of control compound 1 as +++++; an activity that is 10 folds that of control compound 1 as ++++; the activity of the control compound 1 (LPS18:1) as +++; an activity that is 1/10 as ++; an activity that is 1/100 as +; an activity below that as −; conditions: for GPR34/LPS2 agonistic activity, TGFα shedding assay: HEK293 cells transfected with mouse GPR34 and AP labeled TGFα, activity relative to control compound 1 (LPS18:1) = +++
T1 construct: expressed in transfected cells; host or cells: HEK293
T1 sequence (Q9R1K6 whole entry): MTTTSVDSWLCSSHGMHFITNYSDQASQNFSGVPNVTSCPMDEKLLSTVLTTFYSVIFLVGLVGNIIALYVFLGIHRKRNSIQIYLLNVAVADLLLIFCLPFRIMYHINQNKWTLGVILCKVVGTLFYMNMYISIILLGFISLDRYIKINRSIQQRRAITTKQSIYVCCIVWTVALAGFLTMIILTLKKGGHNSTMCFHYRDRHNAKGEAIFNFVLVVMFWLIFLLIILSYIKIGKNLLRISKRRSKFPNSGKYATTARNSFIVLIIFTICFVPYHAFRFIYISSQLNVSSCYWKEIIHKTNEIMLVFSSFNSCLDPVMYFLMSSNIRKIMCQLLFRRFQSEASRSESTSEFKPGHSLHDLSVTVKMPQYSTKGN
Procedure: (§1) [Test Example 1]Assay of Agonistic Activity by TGFα Shedding Assay
(§2) HEK293 cells were suspended in the Dulbecco's modified Eagle's medium (DMEM) containing 10% fetal bovine serum (FCS) to exist in an amount of 2.0×10^5 cells/mL, and they were seeded in 60 mm dishes at 4 mL per dish. Transfection of different expression vectors was performed using LipofectAMINE 2000 (Invitrogen) after 24 hours of culture under the presence of 5% CO2. For each 60 mm dish, 1 μg of AP labeled TGFα plasmid vectors were used, and 1 μg of pCAGGS plasmid vectors of mouse GPR34, P2Y10 or GPR174 were used. The plasmid vectors were prepared by methods disclosed in Patent Documents 2 and 5. Note that the AP labeled TGFα is a protein comprising a membrane-bound pro-TGFα whose N terminal end is fused with human placental alkaline phosphatase, and the plasmid vector of the AP labeled TGFα may be produced based on the teaching of Tokumaru et al., J Cell Biol 151, 209-220 (2000). After 24 hours of transfection, the cells were peeled off using trypsin/EDTA, and they were re-suspended in a culture medium to form an amount of 2.0×10^4 cells/well to be seeded to a 96-well plate. Hanks' Balanced Salt Solution (HBSS, containing 5 mM HEPES) was used for the re-suspended solution when stimulating with the compound. After it was left still for 30 min., subject compounds of various concentrations were added and the solutions were left still for another 1 hour under the presence of 5% CO2. The 96-well plate was subjected to centrifugation (190×g, 3 min.), then 80 μl of supernatant was transferred to a different 96-well plate. A reaction buffer (40 mM Tris-HCl (pH 9.5)) containing 10 mM p-nitrophenyl phosphate (p-NPP) was added in an amount of 80 μL to the supernatant and cells. The OD405 was measured with a micro plate reader (background), then after heating at 37° C. for an hour, OD405 was re-measured. The AP activity for each well was obtained by subtracting the background from the second absorbance and plugging the difference into the following formula.
(§3) In addition, the value obtained by subtracting the AP activity (%) of the non-stimulated group was used in the vertical axis to create a graph. The graphs of the test results for Example 3 (lysoPS sn-1-deoxy sn3 C3-ph-o-OBn-m-Oph) and Example 31 (lysoPS sn-1-OMe sn3 C3-ph-o-OBn-m-Oph) are shown in FIG. 1.
(§4) The obtained activity is shown by plotting the compound concentration and AP activity (%), then representing the activity of the control compound 1 (LPS18:1) as +++, an activity that is 10 folds that of control compound 1 as ++++, an activity that is 100 folds that of control compound 1 as +++++, an activity that is 1/10 as ++, and an activity that is 1/100 as +, and an activity below that as −.

[2] = target: T2, mouse P2Y10 (Mus musculus, UniProt Q8BFU7); experiment: TGFα shedding assay, agonistic activity on P2Y10; set-up: key: an activity that is 100 folds that of control compound 1 as +++++; an activity that is 10 folds that of control compound 1 as ++++; the activity of the control compound 1 (LPS18:1) as +++; an activity that is 1/10 as ++; an activity that is 1/100 as +; an activity below that as −; conditions: HEK293 cells transfected with mouse P2Y10 and AP labeled TGFα; activity relative to control compound 1 (LPS18:1) = +++
T2 construct: expressed in transfected cells; host or cells: HEK293
T2 sequence (Q8BFU7 whole entry): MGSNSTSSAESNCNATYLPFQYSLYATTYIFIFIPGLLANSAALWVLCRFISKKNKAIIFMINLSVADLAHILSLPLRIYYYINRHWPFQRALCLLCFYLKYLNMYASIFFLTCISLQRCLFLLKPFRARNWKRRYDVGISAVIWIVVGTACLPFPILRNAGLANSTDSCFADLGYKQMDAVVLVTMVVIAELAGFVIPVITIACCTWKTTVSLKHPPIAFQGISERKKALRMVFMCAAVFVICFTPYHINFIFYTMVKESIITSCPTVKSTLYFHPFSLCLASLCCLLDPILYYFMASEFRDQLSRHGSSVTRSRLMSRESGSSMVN
Procedure: as §1, §2, §3, §4

[3] = target: T3, mouse GPR174 (Mus musculus, UniProt Q3U507); experiment: TGFα shedding assay, agonistic activity on GPR174; set-up: key: an activity that is 100 folds that of control compound 1 as +++++; an activity that is 10 folds that of control compound 1 as ++++; the activity of the control compound 1 (LPS18:1) as +++; an activity that is 1/10 as ++; an activity that is 1/100 as +; an activity below that as −; conditions: HEK293 cells transfected with mouse GPR174 and AP labeled TGFα; activity relative to control compound 1 (LPS18:1) = +++
T3 construct: expressed in transfected cells; host or cells: HEK293
T3 sequence (Q3U507 whole entry): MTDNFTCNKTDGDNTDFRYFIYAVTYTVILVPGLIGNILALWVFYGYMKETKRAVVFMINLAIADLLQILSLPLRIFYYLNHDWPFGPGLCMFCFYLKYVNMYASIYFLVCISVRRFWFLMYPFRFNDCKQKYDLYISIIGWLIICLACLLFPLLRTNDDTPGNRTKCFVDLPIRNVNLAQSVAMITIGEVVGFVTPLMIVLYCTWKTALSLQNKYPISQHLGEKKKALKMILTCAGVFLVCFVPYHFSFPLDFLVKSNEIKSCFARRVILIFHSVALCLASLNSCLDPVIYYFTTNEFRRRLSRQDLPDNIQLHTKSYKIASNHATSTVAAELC
Procedure: as §1, §2, §3, §4

Row | SMILES | GPR34/LPS2 agonistic activity, TGFα shedding assay [1] | P2Y10/LPS2 agonistic activity, TGFα shedding assay [2] | GPR174/LPS3 agonistic activity, TGFα shedding assay [3] | receptor selectivity of agonist activity among GPR34, P2Y10, GPR174 (graphs of FIG. 1) ([1]; TGFα shedding assay, HEK293 cells, AP activity (%) vs concentration)
1 | CCCCCCCCCCCOc1ccccc1CCC(=O)OC[C@H]1OCCC[C@@H]1OP(=O)(O)OC[C@H](N)C(=O)O [Example 21, (2S)-2-amino-3-(hydroxyl-{(2R,3S)-2-[3-(2-undecyloxy-phenyl)-propionyloxymethyl]-tetrahydro-pyran-3-yloxy}-phosphoryloxy)-propionic acid] | −~++ | ++ | − | 
2 | CCCCCCCCCCCOc1ccccc1CCC(=O)O[C@@H]1CCOC[C@H]1OP(=O)(O)OC[C@H](N)C(=O)O [Example 8, (2S)-2-amino-3-((3R,4R)-hydroxy-{4-[3-(2-undecyloxy-phenyl)-propionyloxy]-tetrahydro-pyran-3-yloxy}-phosphoryloxy)-propionic acid] | +++~++++ | +++ | − | 
3 | N[C@@H](COP(=O)(O)O[C@H]1C=CCO[C@@H]1COC(=O)CCc1ccccc1OCc1cccc(Oc2ccccc2)c1)C(=O)O [Example 24, (2S)-2-amino-3-[hydroxy-((2R,3S)-2-{3-[2-(3-phenoxy-benzyloxy)-phenyl]-propionyloxymethyl}-3,6-dihydro-2H-pyran-3-yloxy)-phosphoryloxy]-propionic acid] | +++ | ++~+++ | − | 
4 | CCCCCCCC/C=C\CCCCCCCC(=O)OC[C@H]1OCCC[C@H]1OP(=O)(O)OC[C@H](N)C(=O)O [Example 15, (9Z)-Octadeca-9-enoic acid (2R,3R)-3-[((2S)-2-amino-2-carboxy-ethoxy)-hydroxy-phosphoryloxy]-tetrahydropyran-2-ylmethyl ester] | ++ | − | − | 
5 | CCCCCCCC/C=C\CCCCCCCC(=O)OC[C@H]1OCCC[C@@H]1OP(=O)(O)OC[C@H](N)C(=O)O [Example 20, (9Z)-Octadeca-9-enoic acid (2R,3S)-3-[((2S)-2-amino-2-carboxy-ethoxy)-hydroxy-phosphoryloxy]-tetrahydro-pyran-2-ylmethyl ester] | +++~++++ | + | − | 
6 | CCCCCCCCCCCOc1ccccc1CCC(=O)O[C@H]1CCCO[C@@H]1COP(=O)(O)OC[C@H](N)C(=O)O [Example 14, (2S)-2-amino-3-(hydroxy-{(2R,3S)-3-[3-(2-undecyloxy-phenyl)-propionyloxy]-tetrahydro-pyran-2-ylmethoxy}-phosphoryloxy)-propionic acid] | − | + | − | 
7 | COC[C@H](COC(=O)CCc1ccccc1OCc1cccc(Oc2ccccc2)c1)OP(=O)(O)OC[C@H](N)C(=O)O [Example 31, (2S)-2-amino-3-[hydroxy-((1R)-1-methoxymethyl-2-{3-[2-(3-phenoxy-benzyloxy)-phenyl]-propionyloxy}-ethoxy)-phosphoryloxy]-propionic acid] | +++++ | +~++ | − | agonists having selectivity against GPR34
8 | CCCCCCCC/C=C\CCCCCCCC(=O)OC[C@@H](COC)OP(=O)(O)OC[C@H](N)C(=O)O [Example 4, (9Z)-Octadeca-9-enoic acid (2R)-2-[((2S)-2-amino-2-carboxy-ethoxy)-hydroxy-phosphoryloxy]-3-methoxy-propyl ester] | ++++ | + | − | 
9 | N[C@@H](COP(=O)(O)O[C@H]1CCCO[C@@H]1COC(=O)CCc1ccccc1OCc1cccc(Oc2ccccc2)c1)C(=O)O [Example 22, (2S)-2-amino-3-[hydroxyl-((2R,3S)-2-{3-[2-(3-phenoxy-benzyloxy)-phenyl]-propionyloxymethyl}-tetrahydropyran-3-yloxy)-phosphoryloxy]-propionic acid] | +++ | − | − | 
10 | CCCCCCCCCCCOc1ccccc1CCC(=O)O[C@@H]1COCC[C@H]1OP(=O)(O)OC[C@H](N)C(=O)O [Example 9, (2S)-2-amino-3-(hydroxyl-{(3R,4R)-3-[3-(2-undecyloxy-phenyl)-propionyloxy]-tetrahydropyran-4-yloxy}-phosphoryloxy)-propionic acid] | ++++~+++++ | ++~+++ | − | 
11 | CCCCCCCCCCCOc1ccccc1CCC(=O)O[C@H]1COCC[C@@H]1OP(=O)(O)OC[C@H](N)C(=O)O [Example 11, (2S)-2-amino-3-(hydroxy-{(3S,4S)-3-[3-(2-undecyloxy-phenyl)-propionyloxy]-tetrahydro-pyran-4-yloxy}-phosphoryloxy)-propionic acid] | − | ++ | − | 
12 | CCCCCCCC/C=C\CCCCCCCC(=O)OC[C@@H](C)OP(=O)(O)OC[C@H](N)C(=O)O [Example 1, (9Z)-Octadeca-9-enoic acid (2R)-2-[((2S)-2-amino-2-carboxy-ethoxy)-hydroxy-phosphoryloxy]-propyl ester] | ++++ | ++ | +~++ | 
13 | CCCCCCCCCCCOc1ccc(C(C)(C)C)cc1CCC(=O)O[C@H]1COCC[C@@H]1OP(=O)(O)OC[C@H](N)C(=O)O [Example 12, (2S)-2-amino-3-({(3S,4S)-3-[3-(5-tert-butyl-2-undecyloxy-phenyl)-propionyloxy]-tetrahydro-pyran-4-yloxy}-hydroxy-phosphoryloxy)-propionic acid] | − | + | − | 
14 | CCCCCCCC/C=C\CCCCCCCC(=O)OC[C@@H](COCc1ccccc1)OP(=O)(O)OC[C@H](N)C(=O)O [Example 7, (9Z)-Octadeca-9-enoic acid (2R)-2-[((2S)-2-amino-2-carboxy-ethoxy)-hydroxy-phosphoryloxy]-3-benzyloxy-propyl ester] | ++ | − | − | 
